IC50 and CC50 data for six compounds are collected here from ChEMBL document CHEMBL5120897, “Anti-HIV Tigliane-Type Diterpenoids from the Aerial Parts of Wikstroemia lichiangensis” (J Nat Prod, 2022).

The test system of test [1] is Human immunodeficiency virus 1. As to the kind of experiment: Anti-HIV activity against HIV-1 NL4-3 Nanoluc-sec virus infected in human MT4 cells assessed as luciferase activity and measured 3 days post-infection by Nano-Glo luciferase assay. In kind it is functional, organism-based. To be noted: Human immunodeficiency virus 1, NL4-3, MT4, 72 h.
Another test has as its system MT4. Kind of test: Cytotoxicity against human MT4 cells assessed as reduction in cell viability by CellTiter-Glo luminescent cell viability assay. The test is classed as functional. A general note: Cellular ATP, detected with luciferase, serves as a proxy for viable cell number.

Usually IC50 stands for the midpoint of a concentration-inhibition curve. One may read the CC50 as the concentration that lowers cell viability or growth by half. As to `C=C(C)[C@]12C[C@@H](COC(=O)c3ccccc3)[C@@]34OC5(O[C@@H]1[C@@H]3[C@@H]1O[C@]1(CO)[C@@H](O)[C@@]1(O)[C@H]4[C@H]([C@H](C)[C@@H]1OC(=O)c1ccccc1)[C@H](C)CCCCCC[C@H]5O)O2`, the IC50 in test [1] turned out to be 0.15 nM. For the same compound, the CC50 in the test with MT4 is more than 7000 nM.

On to `CCCC/C=C/C=C/CC(=O)O[C@@]12[C@H](OC(=O)c3ccccc3)[C@@H](C)[C@@]3(O)[C@@H](C=C(CO)C[C@]4(O)C(=O)C(C)=C[C@@H]34)[C@@H]1C2(C)C`, for which, in test [1], the concentration for half-maximal inhibition (IC50) was determined as 3 nM. The CC50 in the test on MT4 was more than 7000 nM.

As to `CCCCCC/C=C/CC(=O)O[C@@]12[C@H](OC(=O)c3ccccc3)[C@@H](C)[C@@]3(O)[C@@H](C=C(CO)C[C@]4(O)C(=O)C(C)=C[C@@H]34)[C@@H]1C2(C)C`, the IC50 in test [1] was 1.1 nM. Besides, the CC50 with MT4 was more than 7000 nM.

For `CCCCCCCCCC(=O)O[C@@]12[C@H](OC(=O)c3ccccc3)[C@@H](C)[C@]3(O)[C@@H]4C=C(C)C(=O)[C@@]4(O)[C@H](O)C(CO)=C[C@H]3[C@@H]1C2(C)C`, in test [1], the concentration for half-maximal inhibition (IC50) is 1.5 nM. Further, the CC50 with MT4 is more than 7000 nM.

With `CCCC/C=C/C=C/CC(=O)O[C@@]12[C@H](OC(=O)c3ccccc3)[C@@H](C)[C@]3(O)[C@@H]4C=C(C)C(=O)[C@@]4(O)[C@H](O)C(CO)=C[C@H]3[C@@H]1C2(C)C`, the IC50 in test [1] was determined as 65.4 nM. In the test with MT4, the CC50 was more than 7000 nM.

As for `CCCCCC/C=C/CC(=O)O[C@@]12[C@H](OC(=O)c3ccccc3)[C@@H](C)[C@]3(O)[C@@H]4C=C(C)C(=O)[C@@]4(O)[C@H](O)C(CO)=C[C@H]3[C@@H]1C2(C)C`, in test [1], the IC50 was 1.5 nM. The CC50 with MT4 was more than 7000 nM.
